Common to all, as to format: cell-based, canine
For experiment [1], the system named is W&Wlis cells. The experiment in a line: Analysis of the type of death by flow cytometry (annexin V-FITC/propidium iodide). Details: Necrosis / Apoptosis: unit not given here. As for the experimental part:
The annexin V-FITC and propidium iodide assay was performed in parallel by flow cytometry. The pattern of death of the system was analyzed when adding 5 mEU/ml of glucose oxidase and the combined therapy (5 mEU/ml of GO and 500 μg/ml of linamarin) at 48 hours, followed by the control of untreated cells and of the cells incubated with 500 μg/ml of linamarin at 96 hours. Furthermore, another group of cells was subjected to the same conditions except 10 mM of N-acetyl cysteine (NAC) were added. The cells treated with the combined therapy were subsequently studied at 48 hours in the absence and presence of 100 μM of Z-VAD-fmk, followed by the control of treatment of the cells with UV in the same conditions. Finally, the cells treated with the combined therapy were shown at 48 hours in the absence and presence of 300 μM of 1,5-isoquinolinediol (DIQ), observing that the pattern of death is not modified when PARP-1 is inhibited (FIG. 4).
10^5 W&Wlis cells were seeded in test tubes with a screw-on cap and flat side (Nunc). After 24 hours, different amounts of linamarin (50, 200 or 500 μg/ml) and glucose oxidase (5 mEU/ml) were added in the specified cases. In the appropriate assays, the medium was supplemented with N-acetyl cysteine (10 mM), 1,5-isoquinolinediol (300 μM) or Z-VAD-fmk (100 μM). […] They were centrifuged for 5 minutes at 1200 rpm and the cell precipitate was washed first with PBS and then with binding buffer (0.1 M Hepes/NaOH pH 7.4, 1.4 M NaCl and 25 mM CaCl2). The cells were again precipitated and resuspended in 100 μl of binding buffer supplemented with 5 μl of annexin V-FITC and 2.5 μg/ml of propidium iodide. The samples were incubated for 15 minutes in the dark. Data acquisition and analysis was carried out by means of a FACSCalibur flow cytometer (DB Biosciences) with the Cell Quest program.
A general note: Flow cytometry measures light scatter and fluorescence of single cells or particles in a stream.

The test system of experiment [2] is W&Wlis cells. The description is as above. Conditions: Table 5; Control cells; DIQ (300 μM); 32 hours. Details: unit not given here.
For experiment [3], the system named is W&Wlis cells. The experiment in a line: DNA content analysis by flow cytometry, labeling with propidium iodide. Details: unit not given here. Conditions: UV (24 hours), 12.5 J/m^2; Z-VAD-fmk 100 μM; UV Control = 66.14.
Setting [4] is: Table 5, Control cells, DIQ (300 μM), 48 hours.
Setting [5] is: 0 μg lin, Without GO, 96 hours, NAC (10 mM).
The mark [6] stands for this setting: Table 4, 0 μg lin, Without GO, 72 hours, Z-VAD-fmk (100 μM).

Peptide text beside a SMILES is read from it. * marks the point of attachment. Cbz = O=C(OCc1ccccc1)*; CH2F = FC*

`Oc1cccc2c(O)nccc12` [DIQ, 1,5-isoquinolinediol, reference compound]: the Apoptosis in experiment [1] (Table 5, Control cells, DIQ (300 μM), 32 hours) came to 8.15; in experiment [1] (setting [4]) it was 20.16. Also, the values for the Necrosis in experiment [1] (setting [4]) and in experiment [2] were 29.59 and 17.62, respectively.

Take `CC(=O)N[C@@H](CS)C(=O)O` [NAC, N-acetyl cysteine, reference compound]: in experiment [1] (setting [5]), the Apoptosis amounted to 16.17 and the Necrosis was 13.46.

For `COC(=O)C[C@H](NC(=O)[C@H](C)NC(=O)[C@@H](NC(=O)OCc1ccccc1)C(C)C)C(=O)CF` [Z-VAD-fmk, reference compound] (Cbz-Val-Ala-Asp(OMe)-CH2F), the “DNA content by flow cytometry, labeling with propidium iodide” value in experiment [3] was “Z-VAD-fmk = 2.71”. In addition, in experiment [1] (setting [6]), the Apoptosis was 2.66 and the Necrosis was found to be 37.25. Also, in experiment [1] (Z-VAD-fmk (100 μM), UV 12.5 J/m^2, DNA content and annexin V-FITC/propidium iodide), the “inhibition of UV radiation-induced apoptosis” value is listed as “complete inhibition”.

The values above are taken from patent US20100028366A1, “SYNERGISTIC EFFECT BETWEEN A […] AND ANOTHER OXIDATIVE INDUCING SYSTEM FOR TREATING TUMORS” (priority 2005, published 2010).
